# From patent US6797255B1, “Methods and compositions for enhancing magnetic resonance imaging” (Mallinckrodt Inc., priority 1985, dated 2004)
# What was measured:
# [1] = tested on: rabbits; test: Tissue T1 and T2 relaxation times 45 min after intravenous injection (time course); assay type: in vivo; conditions: for T1 relaxation time / T2 relaxation time: 45 min after 0.03 mmol/kg i.v., 10 mHz RADX
# Method: (§1) All experiments employing the complex dihydrogen bis(N-[N′-(2,6-dimethylphenyl)carbamoylmethyl]iminodiaceto)manganese (II) trihydrate were conducted following intravenous administration to rabbits. A 10 mM solution of the complex was used in these studies. Rabbits were anesthetized with ketamine/xylazine prior to treatment. The results given were obtained with a 10 mHz RADX proton spin analyzer.
# A second study was performed in two rabbits killed 45 min after intravenous injection of 0.03 mmol of the complex/Kg to examine the time course of T1 and T2relaxation enhancement.
# [2] = tested on: rabbit; test: Bile proton T1 and T2 relaxation times over 105 min after intravenous injection; assay type: in vivo; conditions: 0.03 mmol/kg i.v., one rabbit
# Method: as §1
# In a third study, one rabbit received 0.03 mmol of the complex/kg and bile samples were collected at 5-20 min intervals over a 105 min time course and proton T1 and T2 relaxation times were determined. Control bile T1 relaxation time was 944 msec. within 1 min of injection, bile T1 was reduced to 60 msec. Over the 105 minute time course, bile T1 returned to a value of 91 msec, less than 10% of the preinjection control value. The preinjection bile T2 relaxation time was 16 msec.
# [3] = tested on: Swiss CF-1 mice; test: Acute intravenous toxicity determination; assay type: in vivo; conditions: for LD50: acute, intravenous, Trihydrate
# Method: Dihydrogen Bis(N-[N′-(2,6-dimethylphenyl)carbamoylmethyl]iminidiaceto)manganese(II) trihydrate was dissolved in 0.9% sodium chloride Inj. USP as a 1.25% solution.
# Male and female Swiss CF-1 mice with a body weight range of 17.4 to 24.2 grams were used. The mice were housed according to standard procedures and individually marked with picric acid.
# The dose schedule was as follows:
# Measured single doses were injected into the lateral tail vein at a rate of 1 ml/min. The animals were observed immediately after dosing and during the 7-day observation period for pharmacotoxic reactions. Recording of terminal body weights and general necropsy-of the thoracic and abdominal organs was performed after 7 days.
# [4] = Solubility of the complex in water; assay type: physicochemical
# Method: The complex, dihydrogen bis(N-[N′-(2,6-diisopropylphenyl)carbamoylmethyl]iminodiaceto)manganese(II) hydrate, was thus isolated as the hydrated species. The solubility of the complex in water was determined to be approximately 0.1% w/v. The relaxation parameters T1 and T2 of a 10-^−3M solution of the complex in a 90 MHz NMR experiment were determined to be 0.107 sec. and 0.007 sec. respectively. The T1 and T2 values for water are 2.51 sec. and 0.150 sec., respectively.
# The relaxation parameters T1 and T2 of a 10^−3M solution of the complex in a 90 MHz NMR experiment were determined to be 126 milliseconds and 1.5 milliseconds, respectively.
# [5] = tested on: rabbit; test: Tissue T1 and T2 relaxation times 5 min, 15 min or 1 week after 0.05 mmol/kg intravenous dose; assay type: in vivo; conditions: 0.05 mmol/kg i.v.
# Method: as §1
# In another study, employing an intravenous dose of 0.05 mmol of the complex/Kg, one rabbit was killed at time points of 5 min, 15 min or 1 week after dosing. In animals killed at 5 and 15 min, heart and liver T1 and T2 relaxation times were determined with 5 and 10 mHz instruments.
smiles,measurement,setting,value
Cc1cccc(C)c1NC(=O)CN(CC(=O)[O-])CC(=O)O.Cc1cccc(C)c1NC(=O)CN(CC(=O)[O-])CC(=O)O.O.O.O.[Mn+2] [Example 2],tissue T1 relaxation times at 45 min compared with 15 min,[1]; 0.03 mmol/kg i.v.,decreased to the same extent as noted at 15 min
same,T1 relaxation time,[1]; Bladder,367 ms
same,T2 relaxation time,[1]; Bladder,72 ms
same,T1 relaxation time,[1]; Fat,137 ms
same,T2 relaxation time,[1]; Fat,125 ms
same,T1 relaxation time,[1]; Heart,265 ms
same,T2 relaxation time,[1]; Heart,57 ms
same,T1 relaxation time,[1]; Large Intestine,154 ms
same,T2 relaxation time,[1]; Large Intestine,47 ms
same,T1 relaxation time,[1]; Liver,37 ms
same,T2 relaxation time,[1]; Liver,24 ms
same,T1 relaxation time,[1]; Lung,438 ms
same,T2 relaxation time,[1]; Lung,89 ms
same,T1 relaxation time,[1]; Pancreas,117 ms
same,T2 relaxation time,[1]; Pancreas,75 ms
same,T1 relaxation time,[1]; Renal cortex,143 ms
same,T2 relaxation time,[1]; Renal cortex,57 ms
same,T1 relaxation time,[1]; Renal medulla,244 ms
same,T2 relaxation time,[1]; Renal medulla,91 ms
same,T1 relaxation time,[1]; Skeletal muscle,315 ms
same,T2 relaxation time,[1]; Skeletal muscle,41 ms
same,T1 relaxation time,[1]; Small Intestine,129 ms
same,T2 relaxation time,[1]; Small Intestine,48 ms
same,T1 relaxation time,[1]; Spleen,271 ms
same,T2 relaxation time,[1]; Spleen,71 ms
same,T1 relaxation time,[1]; Stomach,159 ms
same,T2 relaxation time,[1]; Stomach,47 ms
same,bile T1 relative to preinjection control value,[2]; at 105 min,less than 10%
same,bile T2 relaxation time,[2]; gradual increase following injection,44 ms
same,bile T1 relaxation time,[2]; over the 105 minute time course (end value),91 ms
same,bile T1 relaxation time,[2]; within 1 min of injection,60 ms
same,Body weight change,"[3]; 0.360 mmol/kg i.v., after 7 days",+1.75 g
same,Mortalities/number tested,"[3]; 0.360 mmol/kg i.v., day 1 after dosing",0/4
same,Mortalities/number tested,"[3]; 0.360 mmol/kg i.v., day 2 after dosing",0/4
same,Mortalities/number tested,"[3]; 0.360 mmol/kg i.v., day 3 after dosing",0/4
same,Mortalities/number tested,"[3]; 0.360 mmol/kg i.v., day 4 after dosing",0/4
same,Mortalities/number tested,"[3]; 0.360 mmol/kg i.v., day 5 after dosing",0/4
same,Mortalities/number tested,"[3]; 0.360 mmol/kg i.v., day 6 after dosing",0/4
same,Mortalities/number tested,"[3]; 0.360 mmol/kg i.v., day 7 after dosing",0/4
same,Mortalities/number tested,"[3]; 0.360 mmol/kg i.v., immediate",0/4
same,Body weight change,"[3]; 0.540 mmol/kg i.v., after 7 days",+2.0 g
same,Mortalities/number tested,"[3]; 0.540 mmol/kg i.v., day 1 after dosing",2/4
same,Mortalities/number tested,"[3]; 0.540 mmol/kg i.v., day 2 after dosing",2/4
same,Mortalities/number tested,"[3]; 0.540 mmol/kg i.v., day 3 after dosing",2/4
same,Mortalities/number tested,"[3]; 0.540 mmol/kg i.v., day 4 after dosing",2/4
same,Mortalities/number tested,"[3]; 0.540 mmol/kg i.v., day 5 after dosing",2/4
same,Mortalities/number tested,"[3]; 0.540 mmol/kg i.v., day 6 after dosing",2/4
same,Mortalities/number tested,"[3]; 0.540 mmol/kg i.v., day 7 after dosing",2/4
same,Mortalities/number tested,"[3]; 0.540 mmol/kg i.v., immediate",2/4
same,Body weight change,"[3]; 0.630 mmol/kg i.v., after 7 days",+1.6 g
same,Mortalities/number tested,"[3]; 0.630 mmol/kg i.v., day 1 after dosing",3/4
same,Mortalities/number tested,"[3]; 0.630 mmol/kg i.v., day 2 after dosing",3/4
same,Mortalities/number tested,"[3]; 0.630 mmol/kg i.v., day 3 after dosing",3/4
same,Mortalities/number tested,"[3]; 0.630 mmol/kg i.v., day 4 after dosing",3/4
same,Mortalities/number tested,"[3]; 0.630 mmol/kg i.v., day 5 after dosing",3/4
same,Mortalities/number tested,"[3]; 0.630 mmol/kg i.v., day 6 after dosing",3/4
same,Mortalities/number tested,"[3]; 0.630 mmol/kg i.v., day 7 after dosing",3/4
same,Mortalities/number tested,"[3]; 0.630 mmol/kg i.v., immediate",3/4
same,pharmacotoxic reactions immediately after injection,"[3]; 0.360-0.630 mmol/kg i.v., mice",Mild to severe convulsions occurred in all the animals immediately after injections
same,pharmacotoxic reactions of surviving animals,"[3]; 0.360-0.630 mmol/kg i.v., mice",mild to severe depression which was resolved within one hour after dosing
same,weight gains,[3]; 7-day observation,normal
same,LD50,"[3]; mouse, listed as dihydrogen bis(N-[N′-(2,6-dimethylphenyl)carbamoylmethyl]-iminodiaceto)manganese",~0.5 mmol/kg
same,LD50,"[3]; mouse, listed as dihydrogen bis(N-[N′-(2,6-dimethylphenyl)carbamoylmethyl]iminodiaceto)-manganese",approximately 0.540 mmol/kg
same,necropsy findings,[3]; after 7 days,did not reveal any abnormalities
same,diagnostic safety ratio,[3]; mouse i.v. LD50 vs ED50 for hepatic T1 enhancement,approximately 50
same,intravenous toxicity profile,"[3]; mouse, in vivo, iv",favorable intravenous toxicity profile
same,solubility of the complex in water,[4],2.5 % w/v
same,solubility of the complex in water (molar),[4],approximately 3.6×10^−3 M
same,heart and liver T1 values,"[5]; killed at 5 and 15 min, 5 and 10 mHz instruments",reduced tissue T1 values at both frequencies
same,tissue T1 and T2 relaxation times,[5]; rabbit killed at 1 week,returned to control values
